Experiments:
[1] = system: multiple sclerosis patients; details: 2 grams per day, cited from earlier work
[2] = system: SOD1^G93A transgenic mice; assay: Survival study in the SOD1 mouse model of ALS; type: in vivo; details: for Observed Days, Total Days: whole cohort
Protocol: High-copy SOD1^G93A transgenic mice were derived from the B6SJL-TgN(SOD1G93A)1Gur strain, obtained from The Jackson Laboratory (Bar Harbor, Me.) and originally produced by Gurney, e.g. Gurney et al., Science 264: 1772-1775 (1994). Animal experiments with the SOD1 model were performed at ALS Therapy Development Institute (herein “ALS-TDI”; Cambridge, Mass.). All mice were genotyped to verify copy number of the SOD1 transgene. Animal handling and study protocols were as previously described by ALS-TDI, e.g. Scott et al., Amyotroph. Lateral Scler. 9: 4-15 (2008).
Groups were balanced with respect to gender and body weight within gender. In addition, groups were age-matched and littermate-matched. […] Each cohort of was balanced between males and females.
5 mL of 0.1 N NaOH was added and the tube gently sonicated. Approximately 140 μL of 1 N HCl was then added to bring the pH to 8.00. The resulting 20 mg/mL solution was delivered by intraperitoneal injection at 10 ml/kg. Vehicle treated mice were administered saline.
Neurological scores were assessed daily from day 50 for both hind legs. The neurological score was based on a scale of 0 to 4. Criteria used to assign each score level are from Scott et al., Amyotroph. Lateral Scler. 9: 4-15 (2008) and are described in Table 2.
The date of definitive neurological disease was the day that the mouse first scored a “2” on the Neurological Score. Upon reaching a score of Neurological Score of “4”, mice were euthanized and the date of death was recorded.
Survival after onset of definitive neurological disease is defined as the total number of days the mice lived after reaching definitive neurological disease (Neurological Score of 2) and before death (Neurological Score of 4). Survival after onset of definitive neurological disease was analyzed in two ways.
The first day that a neurological score was determined was day 50 of age; measurements were collected daily afterwards until death.
The three categories were: (1) days spent before definitive neurological disease, e.g. with a neurological score of 0 or 1; (2) days spent during definitive neurological disease, e.g. with a neurological score of 2 or 3; and (3) days at death, e.g. with a neurological score of 4. By definition, mice were only in the dead state for 1 day, as they were euthanized upon reaching a neurological score of 4; this category was included as a positive control to ensure the integrity of the data and analysis.

2D2-TCR MOG (2D2) mice = assay: 2D2 mouse model of optic neuritis, myelin staining of the optic nerve; type: in vivo; details: for Number of animals, average myelin content score Low / Number of animals, average myelin content score high / Number of animals, average myelin content score moderate: sulfasalazine 200 mg/kg or memantine 5 mg/kg IP BID
Excerpt: This model serves as an inducible model of optic neuritis with a high rate of penetrance. The development of optic neuritis was monitored by animal observation and histopathology.
Female 2D2 (strain C57BL/6-Tg(Tcra2D2,Tcrb2D2)1Kuch/J) and WT mice (C57BL/6) were purchased from The Jackson Laboratory. Each cohort size was 14 animals. Mice were delivered to Ophthy-DS (Kalamazoo, Mich.) under the supervision of Renovo Neural (Cleveland, Ohio) at 8-12 weeks of age and then acclimated for an additional 4 weeks before beginning the experiment. Animals were housed in pathogen-free, individually-ventilated, enriched cages on a 12 h:12 h light:dark cycle with food and water ad libitum. Mice were monitored daily for welfare and symptoms of optic neuritis.
After 4 weeks of acclimation, animals were randomized by weight into 4 groups of 14 animals each. To induce optic neuritis, 200 ng of Pertussis toxin was injected into the 2D2 animals on days 1 and 3 as described by Guan et al. Dosing of vehicle or treatment compounds began at day 1. The four cohorts are: • (1) WT mice (C57BL/6) treated with vehicle (200 μl saline IP, BID). This cohort serves as a control for the readouts of optic neuritis disease. • (2) 2D2 mice vehicle treated with vehicle (200 μl saline IP, BID). […] The memantine-treated group served as a control for anti-glutamatergic therapy in the 2D2 model of optic neuritis.
On day 30, animals were euthanized and perfused. Optic nerves and retinas were dissected out and embedded in paraffin and sections mounted on slides. 5-7 sections of the optic nerve (from one eye) from ten animals in each cohort were stained by Toluidine Blue. Histopathological analysis of the slides and quantitation of the myelin staining intensity was performed blinded by a board-certified pathologist, Dr. Igor Polyakov (Minneapolis, Minn.). Staining intensity of each slide was graded as either low, moderate or high. Both peripheral and central sections of the optic nerve were graded. The intensity of the myelin staining between the cohorts on a per section and a per animal basis was compared using chi-square and Fishers' exact test with a p<0.05 considered significant.
On a per animal basis, this yielded 20 scores per cohort: average score per section×2 scores per animal (peripheral or central)×10 animals per cohort. On a per section basis, this yielded approximately 110 score per cohort: score per section×5-7 sections per animal×2 scores per section (peripheral or central)×10 animals per cohort.

[3] = 200 mg/kg IP two times per day from age 50 days
[4] = Before definitive disease onset (neurological score = 0 or 1)
[5] = Definitive neurological disease (neurological score = 2 or 3)
[6] = Total (central + peripheral, 20 scores), day 30
[7] = per section basis, Central Region, day 30
[8] = per section basis, Peripheral Region, day 30
[9] = per section basis, Total, day 30

## O=C(O)c1cc(/N=N/c2ccc(S(=O)(=O)Nc3ccccn3)cc2)ccc1O [Sulfasalazine, 2-hydroxy-5-[(E)-2-{4-[(pyridin-2-yl)sulfamoyl]phenyl}diazen-1-yl]benzoic acid]
[1]; P-MS subgroup
  accumulation of disability: statistically significant reduction in their accumulation of disability
[1]; RR-MS sub-group
  disease progression: did not slow disease progression
[2]; 200 mg/kg IP two times per day
  Mean Day of Death: 132.6
  Mean Day of Definitive Neurological Disease: 115.2
  Total Days of Survival after Onset of Definitive Disease: 17.4 days
[2]; [3]
  increase in median absolute survival: 3.5 days
  increased absolute lifespan: 2.7%
  time of disease onset: no statistical effect
[2]; 200 mg/kg IP two times per day from age 50 days, listed as sulfasalazine formulation
  increase in median absolute survival: 3.7 days
[2]; 2.7% vs. […] increased absolute lifespan
  effect on absolute survival, greater than riluzole: 68%
[2]; [4]
  Observed Days Minus Expected Days: -14 days
  Observed Days, Total Days: 1708 days
[2]; Death (neurological score = 4)
  Observed Days Minus Expected Days: 0 days
  Observed Days, Total Days: 27 days
[2]; [5]
  Observed Days Minus Expected Days: 112 days
  Observed Days, Total Days: 413 days
[2]; Total Observations (Days)
  Observed Days Minus Expected Days: 98 days
  Observed Days, Total Days: 2148 days
[2]; vs. vehicle
  Mean Day of Death, Absolute Change: 3.7
  Mean Day of Death, Percent Change: 2.9%
  Mean Day of Definitive Neurological Disease, Absolute Change: −1.2
  Mean Day of Definitive Neurological Disease, Percent Change: −1.0%
  Total Days of Survival after Onset of Definitive Disease, Absolute Change: 4.9 days
  Total Days of Survival after Onset of Definitive Disease, Percent Change: 39.2%
[2]; vs. vehicle, listed as Sulfasalazine formulation
  Total Days of Survival after Onset of Definitive Disease, Percent Change: 39%
2D2-TCR MOG (2D2) mice; Central Region, day 30
  Number of animals, average myelin content score Low: 0
  Number of animals, average myelin content score high: 4
  Number of animals, average myelin content score moderate: 6
2D2-TCR MOG (2D2) mice; Peripheral Region, day 30
  Number of animals, average myelin content score Low: 1
  Number of animals, average myelin content score high: 4
  Number of animals, average myelin content score moderate: 5
2D2-TCR MOG (2D2) mice; [6]
  Number of animal scores, myelin content High: 8
  Number of animal scores, myelin content Low: 1
  Number of animal scores, myelin content Moderate: 11
2D2-TCR MOG (2D2) mice; optic nerve, day 30
  myelin content compared to the vehicle-treated 2D2 animals: highly significant increase in myelin content
2D2-TCR MOG (2D2) mice; [7]
  Number of sections, myelin content Low: 0
  Number of sections, myelin content high: 19
  Number of sections, myelin content moderate: 38
2D2-TCR MOG (2D2) mice; [8]
  Number of sections, myelin content Low: 8
  Number of sections, myelin content high: 21
  Number of sections, myelin content moderate: 28
2D2-TCR MOG (2D2) mice; [9]
  Number of section scores, myelin content High: 40
  Number of section scores, myelin content Low: 8
  Number of section scores, myelin content Moderate: 66
2D2-TCR MOG (2D2) mice; per-animal basis
  Percent scores, Myelin content-Total High: 40%
  Percent scores, Myelin content-Total Low: 5%
  Percent scores, Myelin content-Total Moderate: 55%
2D2-TCR MOG (2D2) mice; per-section basis
  Percent scores, Myelin content-Total High: 35%
  Percent scores, Myelin content-Total Low: 7%
  Percent scores, Myelin content-Total Moderate: 58%

Source: patent US20200009118A1, “COMPOSITIONS AND METHODS FOR THE TREATMENTOF NEURODEGENERATIVE AND OTHER DISEASES” (Glialogix, Inc., priority 2017, published 2020)
